This note sets out measurements from patent US10399940B2, “Substituted pyrrolidines and methods of use” (AbbVie S.à.r.l., priority 2016, dated 2019).

Where two headings read alike, the source gives them in different places.

The target of this assay is T1, F508delCFTR (Homo sapiens, UniProt P13569, DEL508-508).
T1 construct: expressed in transfected cells; host or cells: CFBE41o- (human lung derived epithelial cell line), doxycycline-inducible expression
The assay can be described thus: Cell Surface Expression-Horse Radish Peroxidase (CSE-HRP) assay. Particulars: CFBE41o-F508delCFTR-HRP cells; for Maximum % activity (with co-corrector): with co-corrector (2 μM); for Maximum % activity (with co-corrector) / Maximum % activity (without co-corrector): normalized to on-plate positive control, highest concentration 20 μM. The class given is cell-based. The method in brief:
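CFBE41o- cells expressed F508delCFTR with HRP in the fourth exofacial loop, induced by 0.5 μg/mL doxycycline for 72 h at 37 °C. Compounds alone or with 2 μM co-corrector ran 18–24 h at 33 °C, 8-point 3-fold from 20 μM. Washed-cell luminol luminescence was normalized to DMSO and positive control, fitted sigmoidally for EC50 (three plates).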

Setting [1] is: test compound without co-corrector, 18-24 hours at 33° C., read-out: EC50 (without co-corrector).
[2] abbreviates: with co-corrector (2 μM of 3-[(2R,4R)-4-({[1-(2,2-difluoro-1,3-benzodioxol-5-yl)cyclopropyl]carbonyl}amino)-7-methoxy-3,4-dihydro-2H-chromen-2-yl]benzoic acid), read-out: EC50 (with co-corrector).

T1 sequence (P13569 with tags, fused parts or gaps DEL508-508): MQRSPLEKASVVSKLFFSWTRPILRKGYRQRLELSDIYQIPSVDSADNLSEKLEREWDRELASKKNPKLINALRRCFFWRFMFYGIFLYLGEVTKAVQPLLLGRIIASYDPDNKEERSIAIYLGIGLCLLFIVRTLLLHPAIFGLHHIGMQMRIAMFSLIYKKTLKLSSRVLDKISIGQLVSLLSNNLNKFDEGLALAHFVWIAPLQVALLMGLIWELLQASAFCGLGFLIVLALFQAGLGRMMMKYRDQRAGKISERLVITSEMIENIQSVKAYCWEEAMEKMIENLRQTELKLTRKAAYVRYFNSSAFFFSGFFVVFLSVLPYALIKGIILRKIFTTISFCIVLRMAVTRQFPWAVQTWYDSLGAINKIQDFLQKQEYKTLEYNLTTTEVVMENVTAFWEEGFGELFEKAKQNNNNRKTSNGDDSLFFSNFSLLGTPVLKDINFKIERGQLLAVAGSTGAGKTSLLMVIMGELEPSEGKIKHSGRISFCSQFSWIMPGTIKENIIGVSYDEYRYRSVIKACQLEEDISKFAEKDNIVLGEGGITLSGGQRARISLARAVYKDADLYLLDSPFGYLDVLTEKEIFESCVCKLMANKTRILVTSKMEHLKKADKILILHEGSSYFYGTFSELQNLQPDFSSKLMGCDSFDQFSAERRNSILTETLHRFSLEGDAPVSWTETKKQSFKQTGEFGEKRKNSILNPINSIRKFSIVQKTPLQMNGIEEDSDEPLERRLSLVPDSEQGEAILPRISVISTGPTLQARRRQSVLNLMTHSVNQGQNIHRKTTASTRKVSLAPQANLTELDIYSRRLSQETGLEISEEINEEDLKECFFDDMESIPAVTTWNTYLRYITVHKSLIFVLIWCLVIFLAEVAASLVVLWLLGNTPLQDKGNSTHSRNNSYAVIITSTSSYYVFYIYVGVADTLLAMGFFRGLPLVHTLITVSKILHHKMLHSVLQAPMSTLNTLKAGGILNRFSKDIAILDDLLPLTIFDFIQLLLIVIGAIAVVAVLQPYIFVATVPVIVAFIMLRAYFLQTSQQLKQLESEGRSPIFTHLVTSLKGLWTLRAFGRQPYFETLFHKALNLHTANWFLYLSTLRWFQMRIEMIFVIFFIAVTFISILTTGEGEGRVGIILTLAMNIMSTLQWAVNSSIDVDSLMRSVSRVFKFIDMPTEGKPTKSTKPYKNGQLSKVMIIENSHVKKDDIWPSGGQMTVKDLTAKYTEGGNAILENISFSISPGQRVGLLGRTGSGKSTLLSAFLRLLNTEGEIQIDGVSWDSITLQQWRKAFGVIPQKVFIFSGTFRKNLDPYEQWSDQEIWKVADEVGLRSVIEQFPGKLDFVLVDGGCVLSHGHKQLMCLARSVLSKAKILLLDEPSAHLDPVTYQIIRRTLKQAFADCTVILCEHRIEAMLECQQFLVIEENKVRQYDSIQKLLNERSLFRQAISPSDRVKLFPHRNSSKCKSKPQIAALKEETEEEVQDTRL

Usually EC50 stands for the concentration needed to bring the measured effect to its halfway point. For `COc1ncc(C2CCC2)cc1CO[C@H]1[C@H](C(C)(C)C)[C@@H](C(=O)O)N(S(=O)(=O)c2cccc3ccccc23)[C@H]1c1cccnc1OC(C)C` [Example 294, (2S,3R,4S,5S)-3-tert-butyl-4-[(5-cyclobutyl-2-methoxypyridin-3-yl)methoxy]-1-(naphthalene-1-sulfonyl)-5-{2-[(propan-2-yl)oxy]pyridin-3-yl}pyrrolidine-2-carboxylic acid], the “Maximum % activity (with co-corrector)” value is “++ (≥150 and <350)”; the “Maximum % activity (without co-corrector)” value is listed as “+ (<100)”. Further, under setting [1], the EC50 is above 10 µM. Further, under setting [2], the 50% effective concentration (EC50) fell in the range of 1 to 10 µM.

For `COc1ncc(C(F)(F)F)cc1CO[C@H]1[C@H](C(C)(C)C)[C@@H](C(=O)O)N(C(=O)[C@@H]2CCCO2)[C@H]1c1cccc(C(C)(C)C)c1` [Example 121, (2S,3R,4S,5S)-3-tert-butyl-5-(3-tert-butylphenyl)-4-{[2-methoxy-5-(trifluoromethyl)pyridin-3-yl]methoxy}-1-[(2S)-oxolane-2-carbonyl]pyrrolidine-2-carboxylic acid], the “Maximum % activity (with co-corrector)” value was “++ (≥150 and <350)”; the “Maximum % activity (without co-corrector)” value was “+ (<100)”. Besides, the EC50 under setting [1] is below 1 µM. The EC50 under setting [2] was below 1 µM.

For `COc1ncc(C2CCC2)cc1CO[C@H]1[C@H](C(C)(C)C)[C@@H](C(=O)O)N(C(=O)C2CCCCC2)[C@H]1c1cccc2c1OC(C)(C)C2` [Example 256, (2S,3R,4S,5S)-3-tert-butyl-4-[(5-cyclobutyl-2-methoxypyridin-3-yl)methoxy]-1-(cyclohexanecarbonyl)-5-(2,2-dimethyl-2,3-dihydro-1-benzofuran-7-yl)pyrrolidine-2-carboxylic acid], the “Maximum % activity (with co-corrector)” value was “+++ (≥350)” and the “Maximum % activity (without co-corrector)” value is recorded as “+ (<100)”. In addition, the EC50 under setting [1] fell in the range of 1 to 10 µM. The half-maximal effective concentration (EC50) under setting [2] is below 1 µM.

As for `COc1ccc(-c2ccccc2)cc1CO[C@H]1[C@H](C(C)(C)C)[C@@H](C(=O)O)N(C(=O)[C@@H]2CCC[C@@H](OC)C2)[C@H]1c1ccccc1` [Example 39, (2S,3R,4S,5S)-3-tert-butyl-4-[(4-methoxy[1,1′-biphenyl]-3-yl)methoxy]-1-[(1R,3R)-3-methoxycyclohexane-1-carbonyl]-5-phenylpyrrolidine-2-carboxylic acid], the “Maximum % activity (with co-corrector)” value was “+++ (≥350)” and the “Maximum % activity (without co-corrector)” value is recorded as “+++ (≥200)”. Under setting [1], the EC50 fell in the range of 1 to 10 µM. The EC50 under setting [2] is 1 to 10 µM.

Regarding `COc1ncc(C2CCC2)cc1CO[C@H]1[C@H](C(C)(C)C)[C@@H](C(=O)O)N(C(=O)C2CCCCC2)[C@H]1c1ccccc1Br` [Example 183, (2S,3R,4S,5S)-5-(2-bromophenyl)-3-tert-butyl-4-[(5-cyclobutyl-2-methoxypyridin-3-yl)methoxy]-1-(cyclohexanecarbonyl)pyrrolidine-2-carboxylic acid], the “Maximum % activity (with co-corrector)” value is listed as “+++ (≥350)”; the “Maximum % activity (without co-corrector)” value was “++ (≥100 and <200)”. Also, the EC50 under setting [1] was 1 to 10 µM. Besides, the EC50 under setting [2] was in the range of 1 to 10 µM.

For `COc1cccc(-c2cnc(OC)c(CO[C@H]3[C@H](C(C)(C)C)[C@@H](C(=O)O)N(C(=O)OC(C)C)[C@H]3c3ccccc3)c2)c1` [Example 70, (2S,3R,4S,5S)-3-tert-butyl-4-{[2-methoxy-5-(3-methoxyphenyl)pyridin-3-yl]methoxy}-5-phenyl-1-{[(propan-2-yl)oxy]carbonyl}pyrrolidine-2-carboxylic acid], the “Maximum % activity (with co-corrector)” value was “++ (≥150 and <350)”; the “Maximum % activity (without co-corrector)” value is reported as “+ (<100)”. Further, the EC50 under setting [1] fell in the range of 1 to 10 µM. The concentration for a half-maximal effect (EC50) under setting [2] was 1 to 10 µM.

Turning to `COc1ccccc1[C@H]1[C@@H](OCc2cc(C3CCC3)cnc2OC)[C@H](C(C)(C)C)[C@@H](C(=O)O)N1C(=O)[C@@H]1CCCCO1` [Example 239, (2S,3R,4S,5S)-3-tert-butyl-4-[(5-cyclobutyl-2-methoxypyridin-3-yl)methoxy]-5-(2-methoxyphenyl)-1-[(2S)-oxane-2-carbonyl]pyrrolidine-2-carboxylic acid], the “Maximum % activity (with co-corrector)” value is “+++ (≥350)”; the “Maximum % activity (without co-corrector)” value is “++ (≥100 and <200)”. Further, the concentration for a half-maximal effect (EC50) under setting [1] is 1 to 10 µM. Besides, the EC50 under setting [2] is below 1 µM.

As to `COc1ccc(C(C)(C)C)cc1CO[C@H]1[C@H](C(C)(C)C)[C@@H](C(=O)O)N(C(=O)[C@@H]2CCCCO2)[C@H]1c1ccccc1C` [Example 188, (2S,3R,4S,5S)-3-tert-butyl-4-[(5-tert-butyl-2-methoxyphenyl)methoxy]-5-(2-methylphenyl)-1-[(2S)-oxane-2-carbonyl]pyrrolidine-2-carboxylic acid], the “Maximum % activity (with co-corrector)” value is on record as “+++ (≥350)” and the “Maximum % activity (without co-corrector)” value is on record as “+++ (≥200)”. In addition, under setting [1], the concentration giving a half-maximal response (EC50) is below 1 µM. In addition, the EC50 under setting [2] is below 1 µM.

As to `COc1ncc(C(C)(C)C)cc1CO[C@H]1[C@H](C(C)(C)C)[C@@H](C(=O)O)N(C(=O)OC(C)C)[C@H]1c1ccccc1` [Example 63, (2S,3R,4S,5S)-3-tert-butyl-4-[(5-tert-butyl-2-methoxypyridin-3-yl)methoxy]-5-phenyl-1-{[(propan-2-yl)oxy]carbonyl}pyrrolidine-2-carboxylic acid], the “Maximum % activity (with co-corrector)” value is recorded as “+++ (≥350)”; the “Maximum % activity (without co-corrector)” value is “++ (≥100 and <200)”. Further, the EC50 under setting [1] fell in the range of 1 to 10 µM. The EC50 under setting [2] was 1 to 10 µM.

As to `COc1ncc(C(F)(F)F)cc1CO[C@H]1[C@H](C(C)(C)C)[C@@H](C(=O)O)N(C(=O)[C@@H]2CCCCO2)[C@H]1c1cccc2c1OCC2` [Example 216, (2S,3R,4S,5S)-3-tert-butyl-5-(2,3-dihydro-1-benzofuran-7-yl)-4-{[2-methoxy-5-(trifluoromethyl)pyridin-3-yl]methoxy}-1-[(2S)-oxane-2-carbonyl]pyrrolidine-2-carboxylic acid], the “Maximum % activity (with co-corrector)” value was “+++ (≥350)” and the “Maximum % activity (without co-corrector)” value was “+ (<100)”. The EC50 under setting [1] lay in the range of 1 to 10 µM. The EC50 under setting [2] is below 1 µM.

As for `COc1ncc(C2CCC2)cc1CO[C@H]1[C@H](C(C)(C)C)[C@@H](C(=O)NS(=O)(=O)c2cccc(N)n2)N(C(=O)[C@@H]2CCCCO2)[C@H]1c1ccccc1C1CC1` [Example 225, (2S,3R,4S,5S)—N-(6-aminopyridine-2-sulfonyl)-3-tert-butyl-4-[(5-cyclobutyl-2-methoxypyridin-3-yl)methoxy]-5-(2-cyclopropylphenyl)-1-[(2S)-oxane-2-carbonyl]pyrrolidine-2-carboxamide], the “Maximum % activity (with co-corrector)” value was “++ (≥150 and <350)”; the “Maximum % activity (without co-corrector)” value is given as “+ (<100)”. Further, the EC50 under setting [1] was 1 to 10 µM. The 50% effective concentration (EC50) under setting [2] was 1 to 10 µM.

`COc1ccc(C(F)(F)F)cc1CO[C@@H]1[C@@H](C(C)(C)C)[C@H](C(=O)O)N(C(=O)[C@@H]2CCC[C@@H](OC)C2)[C@@H]1c1ccccc1` (mixture of isomers) [Example 29, rac-(2R,3S,4R,5R)-3-(tert-butyl)-4-((2-methoxy-5-(trifluoromethyl)benzyl)oxy)-1-((1R,3R)-3-methoxycyclohexanecarbonyl)-5-phenylpyrrolidine-2-carboxylic acid]: the “Maximum % activity (with co-corrector)” value is “+++ (≥350)” and the “Maximum % activity (without co-corrector)” value was “+++ (≥200)”. The concentration for a half-maximal effect (EC50) under setting [1] was 1 to 10 µM. The concentration giving a half-maximal response (EC50) under setting [2] is 1 to 10 µM.
